Drawing on US11427567B2, “Imidazolyl pyrimidinylamine compounds as CDK2 inhibitors” (Incyte Corporation, priority 2019, dated 2022), this text covers IC50 for 25 compounds.

For this experiment, the target named is CDK2/Cyclin E1 (Homo sapiens (Human), UniProt P24941). As to the kind of experiment: CDK2/Cyclin E1 HTRF enzyme activity assay (Example A). The format is biochemical. The settings on record: 1 mM ATP. The method, then: Assays were conducted in white 384-well polystyrene plates in a final reaction volume of 8 μL. […] HTRF signals were read after 1 hour at room temperature on a PHERAstar FS plate reader (BMG Labtech). Data was analyzed with IDBS XLFit and GraphPad Prism 5.0 software using a three or four parameter dose response curve to determine IC50 for each compound.

A value given as a limit tells only on which side of the number the result lay.

`Cc1ccc(-n2cnc(-c3nc(NC4CCN(S(=O)(=O)c5cnn(C)c5C)CC4)ncc3C(F)(F)F)c2)c(C#N)n1` [Example 90, 3-(4-(2-((1-((1,5-Dimethyl-1H-pyrazol-4-yl)sulfonyl)piperidin-4-yl)amino)-5-(trifluoromethyl)pyrimidin-4-yl)-1H-imidazol-1-yl)-6-methylpicolinonitrile] registered a 50% inhibitory concentration (IC50) not above 50 nM. Regarding `O=S(=O)(C1CC1)N1CCC(Nc2ncc(C(F)(F)F)c(-c3cn(-c4cccnc4C(F)(F)F)cn3)n2)CC1` [Example 91, N-(1-(Cyclopropylsulfonyl)piperidin-4-yl)-5-(trifluoromethyl)-4-(1-(2-(trifluoromethyl)pyridin-3-yl)-1H-imidazol-4-yl)pyrimidin-2-amine], the IC50 was not above 50 nM.

For the compound `N#Cc1cccc(-n2cnc(-c3nc(NC4CCN(S(=O)(=O)C5CC5)CC4)ncc3C(F)(F)F)c2)c1C(F)(F)F` [Example 92, 3-(4-(2-((1-(Cyclopropylsulfonyl)piperidin-4-yl)amino)-5-(trifluoromethyl)pyrimidin-4-yl)-1H-imidazol-1-yl)-2-(trifluoromethyl) benzonitrile], the concentration for half-maximal inhibition (IC50) was not above 50 nM. The value for `CCS(=O)(=O)N1CCC(Nc2ncc(C(F)(F)F)c(-c3cn(-c4ccc(C#N)nc4C)cn3)n2)CC1` [Example 93, 5-(4-(2-((1-(Ethylsulfonyl)piperidin-4-yl)amino)-5-(trifluoromethyl)pyrimidin-4-yl)-1H-imidazol-1-yl)-6-methylpicolinonitrile] was not above 50 nM; that for `CCCc1ccc(-n2cnc(-c3nc(NC4CCN(S(C)(=O)=O)CC4)ncc3C(F)(F)F)c2)c(C#N)n1` [Example 94, 3-(4-(2-((1-(Methylsulfonyl)piperidin-4-yl)amino)-5-(trifluoromethyl)pyrimidin-4-yl)-1H-imidazol-1-yl)-6-propylpicolinonitrile] was not above 50 nM. In the case of `CCc1ccc(-n2cnc(-c3nc(NC4CCN(S(C)(=O)=O)CC4)ncc3C(F)(F)F)c2)c(C(F)(F)F)n1` [Example 95, 4-(1-(6-Ethyl-2-(trifluoromethyl)pyridin-3-yl)-1H-imidazol-4-yl)-N-(1-(methylsulfonyl)piperidin-4-yl)-5-(trifluoromethyl) pyrimidin-2-amine] it was not above 50 nM; in that of `CS(=O)(=O)N1CCC(Nc2ncc(C(F)(F)F)c(-c3cn(-c4cccc(-c5ccnc(N)c5)c4Cl)cn3)n2)CC1` [Example 96, 4-(1-(3-(2-Aminopyridin-4-yl)-2-chlorophenyl)-1H-imidazol-4-yl)-N-(1-(methylsulfonyl)piperidin-4-yl)-5-(trifluoromethyl)pyrimidin-2-amine], not above 50 nM; in that of `CS(=O)(=O)N1CCC(Nc2ncc(C(F)(F)F)c(-c3cn(-c4cccc(-c5cccnc5)c4Cl)cn3)n2)CC1` [Example 97, 4-(1-(2-chloro-3-(Pyridin-3-yl)phenyl)-1H-imidazol-4-yl)-N-(1-(methylsulfonyl)piperidin-4-yl)-5-(trifluoromethyl) pyrimidin-2-amine], not above 50 nM. In the case of `Cn1cc(-c2ccc(-n3cnc(-c4nc(NC5CCN(S(C)(=O)=O)CC5)ncc4C(F)(F)F)c3)c(C(F)(F)F)n2)cn1` [Example 98, 4-(1-(6-(1-Methyl-1H-pyrazol-4-yl)-2-(trifluoromethyl)pyridin-3-yl)-1H-imidazol-4-yl)-N-(1-(methylsulfonyl)piperidin-4-yl)-5-(trifluoromethyl) pyrimidin-2-amine] it was not above 50 nM; in that of `CS(=O)(=O)N1CCC(Nc2ncc(C(F)(F)F)c(-c3cn(-c4ccc(C#N)nc4C(F)(F)F)cn3)n2)CC1` [Example 99, 5-(4-(2-((1-(Methylsulfonyl)piperidin-4-yl)amino)-5-(trifluoromethyl)pyrimidin-4-yl)-1H-imidazol-1-yl)-6-(trifluoromethyl)picolinonitrile], not above 50 nM; in that of `CS(=O)(=O)N1CCC(Nc2ncc(C(F)(F)F)c(-c3cn(-c4ccc(C#N)nc4C(F)F)cn3)n2)CC1` [Example 100, 6-(Difluoromethyl)-5-(4-(2-((1-(methyl-sulfonyl)piperidin-4-yl)amino)-5-(trifluoro-methyl)pyrimidin-4-yl)-1H-imidazol-1-yl)picolinonitrile], not above 50 nM. `Cc1nc(-c2nc(NC3CCN(S(C)(=O)=O)CC3)ncc2C(F)(F)F)cn1-c1ccc(N2CCC(N(C)C)CC2)cc1F` [Example 101, 4-(1-(4-(4-(Dimethylamino)piperidin-1-yl)-2-fluorophenyl)-2-methyl-1H-imidazol-4-yl)-N-(1-(methylsulfonyl)piperidin-4-yl)-5-(trifluoromethyl)pyrimidin-2-amine]: the IC50 was not above 50 nM.

Turning to `Cc1nc(-c2nc(NC3CCN(S(C)(=O)=O)CC3)ncc2C(F)(F)F)cn1-c1ccccc1F` [Example 102, 4-(1-(2-Fluorophenyl)-2-methyl-1H-imidazol-4-yl)-N-(1-(methylsulfonyl)piperidin-4-yl)-5-(trifluoromethyl)pyrimidin-2-amine], the 50% inhibitory concentration (IC50) was not above 50 nM. In the case of `Cc1nc(-c2nc(NC3CCN(S(C)(=O)=O)CC3)ncc2C(F)(F)F)cn1-c1ccc(N2CCN(C)CC2)cc1F` [Example 103, 4-(1-(2-Fluoro-4-(4-methylpiperazin-1-yl)phenyl)-2-methyl-1H-imidazol-4-yl)-N-(1-(methylsulfonyl)piperidin-4-yl)-5-(trifluoromethyl)pyrimidin-2-amine] it was not above 50 nM. `Cc1nc(-c2nc(NC3CCN(S(C)(=O)=O)CC3)ncc2C(F)(F)F)cn1-c1ccc(N2CC3(CCN(C)CC3)C2)cc1F` [Example 104, 4-(1-(2-Fluoro-4-(7-methyl-2,7-diazaspiro[3.5]-nonan-2-yl)phenyl)-2-methyl-1H-imidazol-4-yl)-N-(1-(methylsulfonyl)-piperidin-4-yl)-5-(trifluoromethyl)-pyrimidin-2-amine] showed an IC50 not above 50 nM. In the case of `Cc1nc(-c2nc(NC3CCN(S(C)(=O)=O)CC3)ncc2C(F)(F)F)cn1-c1ccc(N2CCN(C(C)C)CC2)cc1F` [Example 105, 4-(1-(2-Fluoro-4-(4-isopropyl-piperazin-1-yl)-phenyl)-2-methyl-1H-imidazol-4-yl)-N-(1-(methyl-sulfonyl)piperidin-4-yl)-5-(trifluoro-methyl)pyrimidin-2-amine] it was not above 50 nM; in that of `Cc1nc(-c2nc(NC3CCN(S(C)(=O)=O)CC3)ncc2C(F)(F)F)cn1-c1ccc(N2CCC[C@H](N(C)C)C2)cc1F` [Example 106, (S)-4-(1-(4-(3-(Dimethylamino)-piperidin-1-yl)-2-fluorophenyl)-2-methyl-1H-imidazol-4-yl)-N-(1-(methyl-sulfonyl)piperidin-4-yl)-5-(trifluoro-methyl)pyrimidin-2-amine], not above 50 nM; in that of `CNC1CCN(c2ccc(-n3cc(-c4nc(NC5CCN(S(C)(=O)=O)CC5)ncc4C(F)(F)F)nc3C)c(F)c2)CC1` [Example 107, 4-(1-(2-Fluoro-4-(4-(methylamino)-piperidin-1-yl)-phenyl)-2-methyl-1H-imidazol-4-yl)-N-(1-(methyl-sulfonyl)piperidin-4-yl)-5-(trifluoro-methyl)pyrimidin-2-amine], not above 50 nM. The value for `Cc1nc(-c2nc(NC3CCN(S(C)(=O)=O)CC3)ncc2C(F)(F)F)cn1-c1ccc(N2CCN(C)C(=O)C2)cc1F` [Example 108, 4-(3-Fluoro-4-(2-methyl-4-(2-((1-(methylsulfonyl)-piperidin-4-yl)-amino)-5-(trifluoro-methyl)pyrimidin-4-yl)-1H-imidazol-1-yl)phenyl)-1-methylpiperazin-2-one] was not above 50 nM.

`Cc1nc(-c2nc(NC3CCN(S(C)(=O)=O)CC3)ncc2C(F)(F)F)cn1-c1ccc(N2CC[C@@H](N(C)C)C2)cc1F` [Example 109, (R)-4-(1-(4-(3-(Dimethylamino)-pyrrolidin-1-yl)-2-fluorophenyl)-2-methyl-1H-imidazol-4-yl)-N-(1-(methyl-sulfonyl)piperidin-4-yl)-5-(trifluoro-methyl)pyrimidin-2-amine]: the IC50 is not above 50 nM.

The compound `Cc1nc(-c2nc(NC3CCN(S(C)(=O)=O)CC3)ncc2C(F)(F)F)cn1-c1ccc(N2CC[C@H](N(C)C)C2)cc1F` [Example 110, (S)-4-(1-(4-(3-(Dimethylamino)-pyrrolidin-1-yl)-2-fluorophenyl)-2-methyl-1H-imidazol-4-yl)-N-(1-(methyl-sulfonyl)piperidin-4-yl)-5-(trifluoro-methyl)pyrimidin-2-amine] yielded an IC50 not above 50 nM.

Compound `Cc1nc(-c2nc(NC3CCN(S(C)(=O)=O)CC3)ncc2C(F)(F)F)cn1-c1ccc(N2CCNCC2)cc1F` [Example 111, 4-(1-(2-Fluoro-4-(piperazin-1-yl)-phenyl)-2-methyl-1H-imidazol-4-yl)-N-(1-(methyl-sulfonyl)piperidin-4-yl)-5-(trifluoro-methyl)pyrimidin-2-amine] had a half-maximal inhibitory concentration (IC50) not above 50 nM. `COCCNc1ccc(-n2cc(-c3nc(NC4CCN(S(C)(=O)=O)CC4)ncc3C(F)(F)F)nc2C)c(F)c1` [Example 112, 4-(1-(2-Fluoro-4-((2-methoxyethyl)-amino)phenyl)-2-methyl-1H-imidazol-4-yl)-N-(1-(methyl-sulfonyl)piperidin-4-yl)-5-(trifluoro-methyl)pyrimidin-2-amine] gave an IC50 not above 50 nM. In the case of `Cc1nc(-c2nc(NC3CCN(S(C)(=O)=O)CC3)ncc2C(F)(F)F)cn1-c1ccc(N(C)CCO)cc1F` [Example 113, 2-((3-Fluoro-4-(2-methyl-4-(2-((1-(methyl-sulfonyl)piperidin-4-yl)amino)-5-(trifluoromethyl)-pyrimidin-4-yl)-1H-imidazol-1-yl)phenyl)(methyl)-amino)ethan-1-ol] it was not above 50 nM.

As to `Cc1nc(-c2nc(NC3CCN(S(C)(=O)=O)CC3)ncc2C(F)(F)F)cn1-c1ccc(N2CCC(N3CCCC3)CC2)cc1F` [Example 114, 4-(1-(2-Fluoro-4-(4-(pyrrolidin-1-yl)piperidin-1-yl)-phenyl)-2-methyl-1H-imidazol-4-yl)-N-(1-(methyl-sulfonyl)piperidin-4-yl)-5-(trifluoro-methyl)pyrimidin-2-amine], the IC50 is not above 50 nM.
